Usually IC50 stands for the concentration that inhibits the measured activity by half.

This is an account of results in article PMC9491098, “Discovery of novel drug-like antitubercular hits targeting the MEP pathway enzyme DXPS by strategic application of ligand-based virtual screening” (Chemical Science, 2022).

For the first test, the target named is T1, MtDXPS (Mycobacterium tuberculosis, UniProt P9WNS3). In words: biochemical. Conditions: K i* (μM), Table 1A, indole derivatives, MtDXPS.
T1 sequence (P9WNS3 whole entry, looked up): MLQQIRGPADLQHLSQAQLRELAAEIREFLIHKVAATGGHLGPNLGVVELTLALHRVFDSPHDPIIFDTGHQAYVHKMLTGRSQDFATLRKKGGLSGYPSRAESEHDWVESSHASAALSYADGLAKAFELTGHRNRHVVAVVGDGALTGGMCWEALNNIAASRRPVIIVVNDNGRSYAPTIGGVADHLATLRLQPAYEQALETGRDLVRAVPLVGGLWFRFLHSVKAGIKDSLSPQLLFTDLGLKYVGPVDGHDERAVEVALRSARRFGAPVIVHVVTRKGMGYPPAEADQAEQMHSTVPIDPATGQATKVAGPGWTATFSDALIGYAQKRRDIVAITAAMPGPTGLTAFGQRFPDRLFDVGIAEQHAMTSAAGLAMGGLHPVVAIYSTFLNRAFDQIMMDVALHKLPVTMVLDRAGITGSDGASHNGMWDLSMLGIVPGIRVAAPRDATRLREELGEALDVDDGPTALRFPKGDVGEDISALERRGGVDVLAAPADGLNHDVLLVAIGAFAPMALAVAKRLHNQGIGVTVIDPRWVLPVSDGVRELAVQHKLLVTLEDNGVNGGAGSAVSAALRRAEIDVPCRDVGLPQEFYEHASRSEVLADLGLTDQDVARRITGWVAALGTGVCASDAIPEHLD
With `O=Cc1cn(Cc2ccc(Cl)c(Cl)c2)c2ccccc12` [Compound 13], the Ki is > 10 µM.

The same test, now with this note: Table 1A, indole derivatives, MtDXPS; read-out: K i*.
As for `COCc1cn(Cc2ccc(Cl)c(Cl)c2)c2ccccc12` [Compound 14], the Ki was > 5 µM. Turning to `OCc1cn(Cc2ccc(Cl)cc2)c2ccccc12` [Compound 16], the Ki is 5.5 ± 0.6 µM.

Take `N#Cc1ccc2c(CO)cn(Cc3ccc(Cl)c(Cl)c3)c2c1` [Compound 18]: the Ki turned out to be 1.7 ± 0.3 µM. Still for that read-out and setting: the same measure for `OCc1cn(Cc2cccc(Cl)c2)c2ccccc12` [Compound 15]: > 10 µM.

Still in this test, the particulars now being: Table 1B, oxime derivatives, MtDXPS; read-out: K i*.
Consider `COc1ccc(/C(Cc2ccc(Cl)cc2)=N/O)c(O)c1` [Compound 24], for which the Ki came to 0.5 ± 0.1 µM. The same measure, in the same setting: the same measure for `CO/N=C(\Cc1ccc(Cl)cc1)c1ccc(O)cc1O` [Compound 20]: > 10 µM.

Still in this test, the particulars now being: Table 1C, aminothiazole derivatives, MtDXPS; read-out: K i*.
As for `Cc1nc(N)sc1-c1csc(Nc2ccc(Cl)cn2)n1` [Compound 30], the Ki is 0.3 ± 0.1 µM.

In the case of `Oc1ccc(-c2csc(Nc3cccc(C(F)(F)F)c3)n2)c(O)c1` [Compound 29], the Ki worked out at 0.5 ± 0.04 µM.

For another test, the target named is T1, MtDXPS. The experiment in a line: biochemical.
Conditions: not given
Take `COc1cc(Cl)c(/C=C2\SC(=S)N(CC(=O)O)C2=O)c(OC)c1` [Compound 50]: the IC50 is > 240 µM.

Consider `NC(Cc1ccc(O)cc1)c1nc2ccccc2[nH]1` (centres unmarked) [Compound 75], for which the IC50 was > 1000 µM. `O=C(O)Cc1ccc(-n2cnnn2)cc1` [Compound 53]: the “inhibition at 1000 μM” value is listed as ~ 25 % inhibition.

In the case of `O=Cc1ccc(O[C@@H]2O[C@H](CO)[C@@H](O)[C@H](O)[C@H]2O)cc1` [Compound 82], the IC50 was > 1000 µM.

Still in this test, the particulars now being: IC50 (μM).
For `Cc1cccc(C(=O)N2CCC(C(N)=O)CC2)c1` [Compound 44], the IC50 is > 1000 µM.

Staying with this test, now noted: IC50 against MtDXPS.
The compound `CC(C)c1ccc(C(C)N2Cc3nc(N)ncc3C2=O)cc1` (centres unmarked) [Compound 4] returned an IC50 of 1020 ± 88 µM. On to `Cc1nc(C)c(-c2csc(Nc3cccc(Cl)c3C)n2)s1` [Compound 8], for which the midpoint of inhibition, the IC50, lay at 117 ± 25 µM.

The same test, now with this note: Table S1, first round of LBVS; MtDXPS; read-out: IC50.
Turning to `OCc1cccnc1-c1nc2ccccc2s1` [Compound 61], the IC50 is > 60 µM. Still for that read-out and setting: the same measure for `CCCCC(C(=O)O)C(C)CC(=O)Nc1nncs1` (centres unmarked) [Compound 80]: > 1000 µM. Same read-out and setting: for `O=c1c2ncccc2nc(O)n1Cc1cccnc1` [Compound 65] the value was > 240 µM; for `COc1ccc(Cn2ccnc2)cc1N` [Compound 70], > 1000 µM. Still for that read-out and setting: the same measure for `CCCSc1nnc(-c2ccccc2NC(C)=O)c(O)n1` [Compound 89]: > 120 µM. On to `O=C(O)CCc1ccc(-c2ccc(F)cc2)n1Cc1ccco1` [Compound 48], for which the half-inhibitory concentration (IC50) was > 500 µM. Still for that read-out and setting: for `CCc1cc(C(N)=O)c(NC(=O)c2cccnc2)s1` [Compound 87] the value was > 60 µM; for `COc1ccc2[nH]cc(C3NC(N)=Nc4nc5ccccc5n43)c2c1` (centres unmarked) [Compound 46], > 500 µM. Regarding `Cc1c(/N=C2\C(=O)N(CC(=O)O)c3ccccc32)c(=O)n(-c2ccccc2)n1C` [Compound 84], the IC50 was > 120 µM. On the same count and under the same terms, the same measure for `CC(C)c1ccc(CN(C(=O)COc2ccccc2)c2ccccn2)cc1` [Compound 47]: > 30 µM. As for `Cc1ccc(C2NC(N)=Nc3nc4ccccc4n32)o1` (centres unmarked) [Compound 49], the IC50 was > 1000 µM. The same measure, in the same setting: for `CCn1nccc1CN(C)C(=O)C1CCC1` [Compound 67] the value was > 1000 µM; for `Cc1nc(-c2ccccc2)nc(Nc2ccccc2)c1Cc1ccccc1` [Compound 45], > 15 µM; for `COc1ccc(OC)c(C2CC(=O)NC3=C2C(=O)CCC3)c1` (centres unmarked) [Compound 63], > 500 µM. Same read-out and setting: the same measure for `Cc1ccc(-n2c(S)nnc2CCn2nc(C)cc2C)cc1` [Compound 73]: > 500 µM; for `Cc1n[nH]c(O)c1C1OC(=O)c2ccccc21` (centres unmarked) [Compound 39]: > 1000 µM. As to `O=C1NC(=O)C(c2ccccc2)N1` (centres unmarked) [Compound 56], the IC50 was > 1000 µM. Same read-out and setting: for `CN1NC(c2ccc(O)cc2)C2C(=O)NC(=O)C21` (centres unmarked) [Compound 85] the value was > 120 µM; for `Cc1ccc(C(=O)Nc2ccc(O)cc2C(=O)O)cc1` [Compound 86], > 120 µM. With `COc1cc(/C=C2\C(=O)Nc3ccc(Br)cc32)cc(OC)c1O` [Compound 88], the 50% inhibitory concentration (IC50) is > 120 µM. `COCC(=O)N(C)Cc1cn(C)nc1C` [Compound 66]: the IC50 is > 1000 µM. The same measure, in the same setting: the same measure for `Cc1sc(N)c(C(=O)c2ccccc2)c1C` [Compound 38]: > 120 µM; for `Oc1ncnc(O)c1C(c1cccs1)c1c(O)ncnc1O` [Compound 43]: > 500 µM. On to `Cc1cc(C)n(CCc2nnc(S)n2-c2ccc(Br)cc2)n1` [Compound 72], for which the IC50 was > 120 µM. The same measure, in the same setting: for `CCn1c(S)nnc1-c1csc2c1CCCC2` [Compound 40] the value was > 240 µM; for `C=CCN1C(=O)N/C(=C/c2ccc(O)c(OCC)c2)C1=O` [Compound 59], > 30 µM; for `O=C(O)c1cc(O)ccc1C=C(Cl)Cl` [Compound 79], > 1000 µM. Still for that read-out and setting: for `CN(C)Cc1ccc(O)cc1` [Compound 58] the value was > 1000 µM; for `Cc1ccccc1-n1c(S)nnc1-c1csc2c1CCCC2` [Compound 41], > 8 µM. Still for that read-out and setting: for `Nn1c(S)nnc1Cn1cnc2ccccc21` [Compound 51] the value was > 1000 µM; for `CSc1ccc(C2N=C(N)Nc3nc4ccccc4n32)cc1` (centres unmarked) [Compound 37], > 60 µM; for `CN1C(=O)CCC(C(=O)O)C1c1ccccc1` (centres unmarked) [Compound 68], > 1000 µM. On to `CCCCNC(=O)N(C)Cc1c(C)nn(CC)c1C` [Compound 69], for which the IC50 was > 1000 µM. The same measure, in the same setting: for `Cc1cc(C(=O)O)c(-c2ccccc2)o1` [Compound 55] the value was > 1000 µM. On the same count and under the same terms, the same measure for `CCC1CCC2(CC1)N=C(O)N(CC(=O)c1ccc3c(c1)CCC3)C2=O` (centres unmarked) [Compound 71]: > 60 µM; for `CCCCC(NS(=O)(=O)c1cc2c3c(c1)c(C)cc(=O)n3CC2)C(=O)O` (centres unmarked) [Compound 90]: > 60 µM. Same read-out and setting: for `Cc1cc(C)n(CCc2nnco2)n1` [Compound 74] the value was > 1000 µM.

As for `CC(C)(CO)NCc1cccs1` [Compound 64], the IC50 is > 1000 µM. Regarding `N=C1NC(=O)C(CC(N)=O)S1` (centres unmarked) [Compound 57], the IC50 is > 1000 µM. On the same count and under the same terms, for `Cc1nn(CCc2nnc(S)n2Cc2ccccc2)c(C)c1Br` [Compound 42] the value was > 30 µM; for `O=C1N/C(=C/c2ccc(O)c(I)c2)C(=O)N1c1ccc(Cl)cc1` [Compound 60], > 120 µM; for `O=C(Nc1ccc(O)cc1C(=O)O)c1ccco1` [Compound 81], > 60 µM. On the same count and under the same terms, for `S=c1[nH]ccn1Cc1ccccc1` [Compound 54] the value was > 500 µM; for `CCNC(=S)Nc1ccc(Cc2ccncc2)cc1` [Compound 52], > 240 µM.

Still in this test, the particulars now being: Table S2, second round of LBVS; MtDXPS; read-out: IC50.
In the case of `CCCOc1ccc(C2N=C(N)Nc3nc4ccccc4n32)cc1` (centres unmarked) [Compound 122], the IC50 was > 50 µM. The same measure, in the same setting: the same measure for `O/N=C/c1cccn1-c1ccc(Br)cc1` [Compound 121]: > 200 µM.

As for `CC(C)(C)c1ccc(Cn2c(CCCO)nc3ccccc32)cc1` [Compound 103], the IC50 is > 90 µM.

As to `CN(C)c1ccc(C2NC(N)=Nc3nc4ccccc4n32)cc1` (centres unmarked) [Compound 125], the IC50 is > 200 µM.

In the case of `CNc1ncc2c(n1)CN(CCc1ccccc1F)C2=O` [Compound 106], the IC50 was > 340 µM. Regarding `OCCc1nc2ccccc2n1Cc1ccc(F)cc1` [Compound 102], the IC50 was > 540 µM. For the compound `Nc1ncc2c(n1)CN(Cc1ccc3c(c1)OCO3)C2=O` [Compound 108], the half-inhibitory concentration (IC50) is > 260 µM.

`CC(C)Cc1nc2ccccc2n1Cc1ccc(Cl)cc1` [Compound 104]: the IC50 was > 63 µM.

With `NC1=NC(c2ccc(O)c(O)c2)n2c(nc3ccccc32)N1` (centres unmarked) [Compound 126], the 50% inhibitory concentration (IC50) was > 160 µM. On the same count and under the same terms, for `OCCc1nc2ccccc2n1Cc1cccc(Cl)c1` [Compound 100] the value was > 236 µM; for `NC1=NC(c2ccccc2F)n2c(nc3ccccc32)N1` (centres unmarked) [Compound 123], > 120 µM. The same measure, in the same setting: for `Cc1ccc(C)c2c1/C(=N/O)C(=O)N2Cc1ccccc1` [Compound 114] the value was > 60 µM. On to `OCCc1nc2ccccc2n1Cc1ccc(Cl)cc1` [Compound 101], for which the IC50 was > 440 µM. The same measure, in the same setting: for `O=C1/C(=N\O)c2c(Cl)cccc2N1Cc1ccccc1` [Compound 113] the value was > 30 µM; for `Nc1ccncc1/C(=N/O)c1ccccc1` [Compound 116], > 2000 µM; for `Nc1ncc2c(n1)CN(Cc1ccccc1C(F)(F)F)C2=O` [Compound 107], > 380 µM. Same read-out and setting: the same measure for `Cc1sc(-n2c(C)cc(/C=N/O)c2C)c(C(=O)O)c1C` [Compound 118]: > 800 µM; for `CCc1ccc(C2N=C(N)Nc3nc4ccccc4n32)cc1` (centres unmarked) [Compound 124]: > 30 µM.

With `CC(C)(C)C(O)/C(=N/O)n1cncn1` (centres unmarked) [Compound 120], the half-maximal inhibitory concentration (IC50) is > 200 µM. On the same count and under the same terms, for `ON=C(c1ccccc1)c1ccccc1` [Compound 115] the value was > 500 µM; for `O/N=C(/c1ccccc1)c1ccccn1` [Compound 117], > 500 µM. Same read-out and setting: for `COc1ccc(Cc2nc3ccccc3n2CC(O)CO)cc1` (centres unmarked) [Compound 105] the value was > 2000 µM; for `O=C1/C(=N\O)c2ccc(Cl)cc2N1Cc1ccccc1` [Compound 112], > 900 µM; for `Cc1ccc(/C(=N\O)c2ccc(O)cc2O)cc1` [Compound 110], > 1000 µM. Still for that read-out and setting: the same measure for `COc1ccc(OC/C(=N\O)c2ccc(O)cc2O)cc1` [Compound 111]: > 300 µM.

Still in this test, the particulars now being: Table S3, third round of LBVS; MtDXPS; read-out: IC50.
Consider `Cc1ccc(-c2csc(Nc3cccc(Cl)c3C)n2)cc1` [Compound 134], for which the half-maximal inhibitory concentration (IC50) was > 16 µM.

Turning to `Cc1nc(NC(=O)c2ccccc2)sc1-c1csc(Nc2ccc(C(F)(F)F)cc2)n1` [Compound 133], the IC50 is > 120 µM. Still for that read-out and setting: the same measure for `Cc1c(Cl)cccc1Nc1nc(-c2cccnc2)cs1` [Compound 135]: > 200 µM. Same read-out and setting: for `FC(F)(F)c1ccc(Nc2nc(-c3ccncc3)cs2)cc1` [Compound 132] the value was > 60 µM.
